Active and inactive are the calls of the source.
Legend:
Vero = Vero cell cytotoxicity, cytotoxicity control for flavivirus capping enzyme inhibitors (AID 588742); type: functional; settings: Chlorocebus sabaeus
Large T antigen = Large T antigen (Simian virus 40, UniProt P03070); type: functional, Betapolyomavirus macacae;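 also: Confirmatory-stage PubChem screen for compounds that inhibit SV40 T antigen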
[1] = molecular target: Peroxisome proliferator-activated receptor gamma/Nuclear receptor coactivator 1 (Homo sapiens, UniProt P37231); test: TR-FRET dose response biochemical High Throughput Screening assay for agonists of the steroid receptor coactivator 1 (SRC-1) recruitment by the peroxisome proliferator-activated receptor gamma (PPAR gamma): non-selective agonists. [Related pubchem assays (depositor defined):AID1300, AID1808, AID504735, AID631]; type: protein assay
[2] = molecular target: Peroxisome proliferator-activated receptor gamma/Nuclear receptor coactivator 2 (Homo sapiens, UniProt P37231); test: (§1) TR-FRET dose response biochemical High Throughput Screening assay for agonists of the steroid receptor coactivator 2 (SRC-2) recruitment by the peroxisome proliferator-activated receptor gamma (PPAR gamma): non-selective agonists. [Related pubchem assays: 1297, 1032 ]; type: functional
Peroxisome proliferator-activated receptor gamma/Nuclear receptor coactivator 2, sequence (P37231 whole entry): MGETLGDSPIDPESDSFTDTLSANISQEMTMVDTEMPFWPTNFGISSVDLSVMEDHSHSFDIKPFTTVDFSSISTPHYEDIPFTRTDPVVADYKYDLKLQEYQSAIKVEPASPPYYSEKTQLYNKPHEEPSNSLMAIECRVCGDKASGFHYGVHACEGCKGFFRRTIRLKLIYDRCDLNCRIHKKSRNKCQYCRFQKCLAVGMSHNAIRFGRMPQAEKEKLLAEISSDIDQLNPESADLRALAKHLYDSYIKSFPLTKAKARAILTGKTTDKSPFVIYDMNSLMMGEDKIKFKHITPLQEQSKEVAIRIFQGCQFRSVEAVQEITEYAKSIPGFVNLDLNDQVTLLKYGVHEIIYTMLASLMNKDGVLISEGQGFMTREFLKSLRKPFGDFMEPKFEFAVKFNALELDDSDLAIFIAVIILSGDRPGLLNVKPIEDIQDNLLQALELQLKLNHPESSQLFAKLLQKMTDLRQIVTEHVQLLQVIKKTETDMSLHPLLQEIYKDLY
Peroxisome proliferator-activated receptor gamma/Nuclear receptor coactivator 2, sequence (Q15596 whole entry, further chain): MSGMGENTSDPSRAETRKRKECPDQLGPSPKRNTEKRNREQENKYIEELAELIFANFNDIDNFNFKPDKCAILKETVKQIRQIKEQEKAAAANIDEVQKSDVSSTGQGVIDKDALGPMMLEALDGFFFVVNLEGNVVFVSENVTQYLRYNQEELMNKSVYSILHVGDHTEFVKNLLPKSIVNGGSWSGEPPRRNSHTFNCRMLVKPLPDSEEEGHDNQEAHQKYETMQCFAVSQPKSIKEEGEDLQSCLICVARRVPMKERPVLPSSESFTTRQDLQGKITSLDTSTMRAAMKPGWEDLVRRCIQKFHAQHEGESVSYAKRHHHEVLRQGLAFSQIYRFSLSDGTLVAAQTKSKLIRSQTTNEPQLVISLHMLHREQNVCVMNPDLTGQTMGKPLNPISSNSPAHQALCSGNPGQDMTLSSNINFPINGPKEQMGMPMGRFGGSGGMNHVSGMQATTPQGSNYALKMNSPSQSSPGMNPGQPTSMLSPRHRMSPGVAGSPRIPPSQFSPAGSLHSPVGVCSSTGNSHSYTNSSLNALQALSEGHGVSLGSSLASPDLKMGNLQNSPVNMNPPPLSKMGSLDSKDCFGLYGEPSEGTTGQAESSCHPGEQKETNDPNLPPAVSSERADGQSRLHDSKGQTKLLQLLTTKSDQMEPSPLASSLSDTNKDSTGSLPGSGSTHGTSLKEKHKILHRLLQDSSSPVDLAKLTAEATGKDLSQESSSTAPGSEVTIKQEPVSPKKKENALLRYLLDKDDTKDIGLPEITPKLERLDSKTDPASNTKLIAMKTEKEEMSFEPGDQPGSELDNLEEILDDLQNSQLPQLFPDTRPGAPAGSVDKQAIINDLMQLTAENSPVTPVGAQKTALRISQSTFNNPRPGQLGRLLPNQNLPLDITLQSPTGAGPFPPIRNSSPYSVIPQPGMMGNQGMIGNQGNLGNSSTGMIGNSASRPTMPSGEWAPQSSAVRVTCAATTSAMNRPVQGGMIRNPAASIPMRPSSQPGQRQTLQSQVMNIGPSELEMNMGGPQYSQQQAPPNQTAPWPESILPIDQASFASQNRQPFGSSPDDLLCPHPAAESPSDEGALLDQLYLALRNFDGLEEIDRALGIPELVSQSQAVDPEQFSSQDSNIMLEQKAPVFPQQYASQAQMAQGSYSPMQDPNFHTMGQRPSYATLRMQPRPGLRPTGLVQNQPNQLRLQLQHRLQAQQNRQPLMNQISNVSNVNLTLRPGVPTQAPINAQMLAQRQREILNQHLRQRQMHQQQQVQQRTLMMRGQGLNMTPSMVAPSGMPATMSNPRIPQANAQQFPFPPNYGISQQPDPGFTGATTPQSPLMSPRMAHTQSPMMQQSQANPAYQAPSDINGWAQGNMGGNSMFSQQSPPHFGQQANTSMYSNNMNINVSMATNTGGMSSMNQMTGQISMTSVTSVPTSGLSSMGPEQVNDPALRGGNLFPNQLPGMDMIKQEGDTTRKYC

[3] = molecular target: Peroxisome proliferator-activated receptor gamma/Nuclear receptor coactivator 3 (Homo sapiens, UniProt P37231); test: as §1, with “3 (SRC-3)” for “2 (SRC-2)”, “1301 (Confirmation screen.), 1048 (Primary screen.)]” for “1297, 1032 ]”; type: functional
Peroxisome proliferator-activated receptor gamma/Nuclear receptor coactivator 3, sequence (P37231 whole entry): as the sequence (P37231 whole entry) above
Peroxisome proliferator-activated receptor gamma/Nuclear receptor coactivator 3, sequence (Q9Y6Q9 whole entry, further chain): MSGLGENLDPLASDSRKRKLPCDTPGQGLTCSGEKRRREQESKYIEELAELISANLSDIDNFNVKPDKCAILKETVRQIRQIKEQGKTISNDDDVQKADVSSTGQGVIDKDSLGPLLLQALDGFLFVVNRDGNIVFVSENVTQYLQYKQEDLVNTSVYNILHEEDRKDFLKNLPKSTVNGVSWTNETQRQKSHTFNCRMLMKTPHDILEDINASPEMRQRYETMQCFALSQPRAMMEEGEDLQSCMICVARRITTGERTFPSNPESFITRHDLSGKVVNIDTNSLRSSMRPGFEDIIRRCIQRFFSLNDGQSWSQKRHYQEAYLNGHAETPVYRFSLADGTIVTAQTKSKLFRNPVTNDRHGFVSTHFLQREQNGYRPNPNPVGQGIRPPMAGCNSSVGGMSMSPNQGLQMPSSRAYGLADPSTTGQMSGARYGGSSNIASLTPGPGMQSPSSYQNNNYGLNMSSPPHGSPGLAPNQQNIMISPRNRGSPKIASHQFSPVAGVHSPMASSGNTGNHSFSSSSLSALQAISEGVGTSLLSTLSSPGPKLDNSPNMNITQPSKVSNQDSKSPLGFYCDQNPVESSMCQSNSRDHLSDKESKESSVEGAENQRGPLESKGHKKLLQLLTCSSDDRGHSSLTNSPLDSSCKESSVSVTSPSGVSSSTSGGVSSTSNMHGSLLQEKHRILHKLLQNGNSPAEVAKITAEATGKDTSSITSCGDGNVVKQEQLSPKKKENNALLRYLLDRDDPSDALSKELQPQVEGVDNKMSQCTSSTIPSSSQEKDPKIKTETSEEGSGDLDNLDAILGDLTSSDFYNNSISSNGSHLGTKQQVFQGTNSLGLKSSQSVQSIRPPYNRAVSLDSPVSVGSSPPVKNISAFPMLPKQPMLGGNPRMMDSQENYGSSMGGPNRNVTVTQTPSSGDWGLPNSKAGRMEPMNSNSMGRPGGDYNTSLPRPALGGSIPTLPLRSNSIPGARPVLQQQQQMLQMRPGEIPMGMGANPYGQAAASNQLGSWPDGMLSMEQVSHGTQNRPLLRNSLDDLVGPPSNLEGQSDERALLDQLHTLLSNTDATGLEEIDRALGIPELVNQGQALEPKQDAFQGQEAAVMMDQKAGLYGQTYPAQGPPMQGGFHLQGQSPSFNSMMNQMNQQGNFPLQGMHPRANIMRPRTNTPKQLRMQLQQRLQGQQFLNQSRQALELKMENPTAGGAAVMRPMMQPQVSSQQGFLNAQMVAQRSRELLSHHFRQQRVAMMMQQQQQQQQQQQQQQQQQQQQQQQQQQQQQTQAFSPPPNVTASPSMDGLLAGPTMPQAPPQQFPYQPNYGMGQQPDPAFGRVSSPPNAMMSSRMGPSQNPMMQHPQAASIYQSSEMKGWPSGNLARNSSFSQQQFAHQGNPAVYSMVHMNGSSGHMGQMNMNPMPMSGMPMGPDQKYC

Beta-galactosidase = Beta-galactosidase (Escherichia coli, UniProt Q8VNN2); test: beta-galactosidase enzyme inhibitors and activators, dose response, artefact control for CCR6 antagonist project, biochemical, E. coli enzyme, set 3 (AID 504712); type: functional
Beta-galactosidase, sequence (Q8VNN2 whole entry): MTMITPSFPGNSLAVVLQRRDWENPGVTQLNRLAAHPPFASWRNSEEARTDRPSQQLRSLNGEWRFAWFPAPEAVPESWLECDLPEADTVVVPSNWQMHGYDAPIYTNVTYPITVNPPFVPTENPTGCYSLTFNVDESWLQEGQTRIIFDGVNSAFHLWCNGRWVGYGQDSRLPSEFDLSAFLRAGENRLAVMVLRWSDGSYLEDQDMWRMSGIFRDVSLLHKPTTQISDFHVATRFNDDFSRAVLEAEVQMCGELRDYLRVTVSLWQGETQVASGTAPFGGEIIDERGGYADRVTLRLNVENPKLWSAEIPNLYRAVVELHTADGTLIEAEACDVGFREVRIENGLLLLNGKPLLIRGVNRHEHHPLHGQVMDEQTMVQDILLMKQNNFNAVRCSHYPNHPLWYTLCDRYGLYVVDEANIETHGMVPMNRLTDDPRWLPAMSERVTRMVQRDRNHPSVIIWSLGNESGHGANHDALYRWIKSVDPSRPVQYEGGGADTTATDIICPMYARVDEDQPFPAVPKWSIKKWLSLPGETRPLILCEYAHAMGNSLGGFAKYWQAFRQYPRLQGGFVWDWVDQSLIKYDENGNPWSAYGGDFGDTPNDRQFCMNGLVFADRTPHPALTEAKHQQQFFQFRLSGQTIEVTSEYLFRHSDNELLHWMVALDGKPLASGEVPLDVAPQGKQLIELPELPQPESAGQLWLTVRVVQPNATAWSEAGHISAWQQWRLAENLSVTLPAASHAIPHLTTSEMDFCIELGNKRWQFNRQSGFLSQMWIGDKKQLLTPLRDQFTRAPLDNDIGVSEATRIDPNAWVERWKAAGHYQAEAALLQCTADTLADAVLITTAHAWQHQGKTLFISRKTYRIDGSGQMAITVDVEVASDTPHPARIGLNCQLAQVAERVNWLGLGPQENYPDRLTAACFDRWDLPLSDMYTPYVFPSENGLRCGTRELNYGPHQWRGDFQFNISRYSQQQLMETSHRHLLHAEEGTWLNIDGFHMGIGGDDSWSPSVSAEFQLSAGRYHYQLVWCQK

[4] = molecular target: T1, Microphthalmia-associated transcription factor (Homo sapiens, UniProt O75030); test: TRPM1 promoter luciferase signal decrease, dose response, MITF inhibitor project, cell-based, SK-MEL-5, cherry-picked, set 3 (AID 493073); type: functional
T1 sequence (O75030 whole entry): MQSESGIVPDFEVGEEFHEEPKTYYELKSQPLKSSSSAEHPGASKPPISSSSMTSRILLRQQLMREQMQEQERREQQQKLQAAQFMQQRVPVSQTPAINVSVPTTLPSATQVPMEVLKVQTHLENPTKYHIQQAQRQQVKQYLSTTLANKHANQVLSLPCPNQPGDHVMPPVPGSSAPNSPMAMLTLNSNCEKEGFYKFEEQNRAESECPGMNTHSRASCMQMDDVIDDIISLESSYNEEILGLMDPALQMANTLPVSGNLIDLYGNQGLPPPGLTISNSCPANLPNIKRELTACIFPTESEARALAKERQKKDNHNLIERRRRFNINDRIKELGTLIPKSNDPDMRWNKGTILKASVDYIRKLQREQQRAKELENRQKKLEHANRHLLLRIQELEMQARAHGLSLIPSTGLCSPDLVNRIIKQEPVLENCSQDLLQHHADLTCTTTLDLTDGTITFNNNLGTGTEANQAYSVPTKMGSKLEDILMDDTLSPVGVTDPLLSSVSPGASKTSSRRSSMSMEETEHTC

[5] = molecular target: T2, Zinc finger protein mex-5 (Caenorhabditis elegans, UniProt Q9XUB2); test: MEX-5/TCR-2 RNA interaction inhibitors, dose response, biochemical, C. elegans, fluorescence polarization (AID 1960)
T2 sequence (Q9XUB2 whole entry): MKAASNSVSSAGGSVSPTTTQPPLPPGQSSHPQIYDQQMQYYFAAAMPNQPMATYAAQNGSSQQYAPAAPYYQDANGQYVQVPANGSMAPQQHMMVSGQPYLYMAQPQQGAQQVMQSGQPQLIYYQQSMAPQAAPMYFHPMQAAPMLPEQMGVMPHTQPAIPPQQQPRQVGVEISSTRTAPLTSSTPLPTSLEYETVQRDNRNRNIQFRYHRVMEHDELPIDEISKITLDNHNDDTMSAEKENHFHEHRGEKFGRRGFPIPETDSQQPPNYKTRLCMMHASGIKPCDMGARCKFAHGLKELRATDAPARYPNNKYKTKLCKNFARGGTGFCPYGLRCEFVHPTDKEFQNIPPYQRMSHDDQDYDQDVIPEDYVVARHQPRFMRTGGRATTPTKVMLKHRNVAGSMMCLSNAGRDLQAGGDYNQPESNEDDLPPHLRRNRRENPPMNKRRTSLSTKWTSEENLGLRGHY

[6] = molecular target: T3, RNA-binding protein pos-1 (Caenorhabditis elegans, UniProt G5EF15); test: inhibitors of POS-1/mex-3 RNA binding, dose response, biochemical, fluorescence polarization (AID 1964);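 also: purified POS-1 fused to maltose binding protein made in E. coli; potency of compounds blocking POS-1 binding to fluorescent RNA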
T3 sequence (G5EF15 whole entry): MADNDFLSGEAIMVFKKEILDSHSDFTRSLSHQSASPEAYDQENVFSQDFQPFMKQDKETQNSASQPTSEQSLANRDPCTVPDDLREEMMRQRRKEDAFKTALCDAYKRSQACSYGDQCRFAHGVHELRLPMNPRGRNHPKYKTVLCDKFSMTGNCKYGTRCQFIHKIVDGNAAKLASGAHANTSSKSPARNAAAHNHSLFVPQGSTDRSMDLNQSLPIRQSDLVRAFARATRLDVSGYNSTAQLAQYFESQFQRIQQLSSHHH

Protein RecA = molecular target: T4, Protein RecA (Mycobacterium tuberculosis, UniProt P9WHJ3); test: Fluorescence Cell-Free Homogeneous Dose Retest to Identify Inhibitors of RecA-Intein Splicing Activity. [Related pubchem assays (depositor defined):AID2097, AID2223, AID489010, AID492950]; type: functional
T4 sequence (P9WHJ3 whole entry): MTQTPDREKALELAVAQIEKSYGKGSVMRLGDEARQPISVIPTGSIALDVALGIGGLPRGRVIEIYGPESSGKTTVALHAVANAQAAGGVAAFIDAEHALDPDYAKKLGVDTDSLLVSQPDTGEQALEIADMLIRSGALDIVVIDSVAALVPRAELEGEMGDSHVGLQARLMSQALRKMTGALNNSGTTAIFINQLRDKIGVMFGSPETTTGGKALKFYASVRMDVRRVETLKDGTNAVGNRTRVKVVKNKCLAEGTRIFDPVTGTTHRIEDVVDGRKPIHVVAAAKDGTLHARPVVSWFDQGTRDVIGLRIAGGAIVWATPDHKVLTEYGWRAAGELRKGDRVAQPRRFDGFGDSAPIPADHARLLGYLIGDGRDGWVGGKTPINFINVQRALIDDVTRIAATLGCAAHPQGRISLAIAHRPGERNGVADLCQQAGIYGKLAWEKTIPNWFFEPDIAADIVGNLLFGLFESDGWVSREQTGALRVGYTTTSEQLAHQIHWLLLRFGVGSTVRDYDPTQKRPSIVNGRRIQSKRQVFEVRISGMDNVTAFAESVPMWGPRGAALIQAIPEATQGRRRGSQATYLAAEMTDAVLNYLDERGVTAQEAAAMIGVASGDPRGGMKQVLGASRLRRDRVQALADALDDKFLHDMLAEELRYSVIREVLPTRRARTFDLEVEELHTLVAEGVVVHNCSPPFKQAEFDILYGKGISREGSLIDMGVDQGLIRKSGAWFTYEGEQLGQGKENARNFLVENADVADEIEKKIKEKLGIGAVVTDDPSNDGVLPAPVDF

[7] = molecular target: T5, Replicative DNA helicase DnaB (Mycobacterium tuberculosis, UniProt P9WMR3); test: DnaB intein splicing inhibitors, dose response, biochemical, cell-free fluorescence (AID 449749); type: functional
T5 sequence (P9WMR3 whole entry): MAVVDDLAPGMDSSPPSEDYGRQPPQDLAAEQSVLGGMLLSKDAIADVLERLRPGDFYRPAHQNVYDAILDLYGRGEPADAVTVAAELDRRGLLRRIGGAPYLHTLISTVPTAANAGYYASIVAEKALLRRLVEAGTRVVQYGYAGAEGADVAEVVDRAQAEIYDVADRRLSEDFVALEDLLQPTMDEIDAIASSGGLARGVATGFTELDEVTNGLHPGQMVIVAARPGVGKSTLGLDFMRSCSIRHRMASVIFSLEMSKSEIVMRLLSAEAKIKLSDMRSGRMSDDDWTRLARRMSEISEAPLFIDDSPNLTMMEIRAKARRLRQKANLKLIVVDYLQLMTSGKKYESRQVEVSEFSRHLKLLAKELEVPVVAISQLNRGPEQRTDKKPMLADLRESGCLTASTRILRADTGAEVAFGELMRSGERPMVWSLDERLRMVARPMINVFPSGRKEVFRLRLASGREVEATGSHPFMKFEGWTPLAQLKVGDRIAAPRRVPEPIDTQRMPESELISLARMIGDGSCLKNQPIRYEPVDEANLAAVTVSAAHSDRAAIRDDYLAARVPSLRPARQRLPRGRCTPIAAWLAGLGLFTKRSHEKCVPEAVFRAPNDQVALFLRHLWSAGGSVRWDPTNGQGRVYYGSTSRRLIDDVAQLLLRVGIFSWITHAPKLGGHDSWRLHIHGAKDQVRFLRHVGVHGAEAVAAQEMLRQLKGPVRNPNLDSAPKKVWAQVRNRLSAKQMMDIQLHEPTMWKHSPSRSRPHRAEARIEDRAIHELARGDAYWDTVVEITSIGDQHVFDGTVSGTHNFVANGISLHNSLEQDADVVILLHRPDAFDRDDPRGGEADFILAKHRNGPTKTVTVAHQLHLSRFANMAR

Cysteine protease ATG4B = molecular target: T6, Cysteine protease ATG4B (Homo sapiens, UniProt Q9Y4P1); type: functional;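 also: Fluorescence-based dose-response confirmation assay measuring inhibition of ATG4B activity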
T6 sequence (Q9Y4P1 whole entry): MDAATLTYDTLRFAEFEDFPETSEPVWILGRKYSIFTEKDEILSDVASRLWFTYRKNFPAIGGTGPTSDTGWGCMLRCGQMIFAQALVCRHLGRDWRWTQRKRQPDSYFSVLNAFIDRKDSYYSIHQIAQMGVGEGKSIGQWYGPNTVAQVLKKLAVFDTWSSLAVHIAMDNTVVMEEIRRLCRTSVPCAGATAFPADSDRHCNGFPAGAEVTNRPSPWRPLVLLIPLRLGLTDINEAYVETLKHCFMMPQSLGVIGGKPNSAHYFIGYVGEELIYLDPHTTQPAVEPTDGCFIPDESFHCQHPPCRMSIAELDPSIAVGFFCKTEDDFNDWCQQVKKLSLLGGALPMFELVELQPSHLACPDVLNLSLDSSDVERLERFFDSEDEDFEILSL

Phospholipase A2 = Phospholipase A2 (Homo sapiens, UniProt P04054); type: functional;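 also: confirmatory dose-response counterscreen on phospholipase A2, testing hits that came from an ultra-high-throughput screen for ATG4B inhibitors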
Phospholipase A2, sequence (P04054 whole entry): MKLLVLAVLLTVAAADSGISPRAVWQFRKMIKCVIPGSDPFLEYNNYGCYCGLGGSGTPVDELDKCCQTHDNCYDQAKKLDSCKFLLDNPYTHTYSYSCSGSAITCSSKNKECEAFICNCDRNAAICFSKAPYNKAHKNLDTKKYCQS

[8] = molecular target: T7, Ubiquitin-conjugating enzyme E2 N (Homo sapiens, UniProt P61088); type: functional;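 also: Dose-response confirmation in a TR-FRET assay detecting UBC13-driven polyubiquitin chain formation, inhibition measured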
T7 sequence (P61088 whole entry): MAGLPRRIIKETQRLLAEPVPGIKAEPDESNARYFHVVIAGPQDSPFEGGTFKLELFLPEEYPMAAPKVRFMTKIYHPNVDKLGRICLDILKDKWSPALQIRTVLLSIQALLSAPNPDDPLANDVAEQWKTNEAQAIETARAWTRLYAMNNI

[9] = molecular target: T8, DNA repair protein RAD52 homolog (Homo sapiens, UniProt P43351); type: functional, biochemical
T8 sequence (P43351 whole entry): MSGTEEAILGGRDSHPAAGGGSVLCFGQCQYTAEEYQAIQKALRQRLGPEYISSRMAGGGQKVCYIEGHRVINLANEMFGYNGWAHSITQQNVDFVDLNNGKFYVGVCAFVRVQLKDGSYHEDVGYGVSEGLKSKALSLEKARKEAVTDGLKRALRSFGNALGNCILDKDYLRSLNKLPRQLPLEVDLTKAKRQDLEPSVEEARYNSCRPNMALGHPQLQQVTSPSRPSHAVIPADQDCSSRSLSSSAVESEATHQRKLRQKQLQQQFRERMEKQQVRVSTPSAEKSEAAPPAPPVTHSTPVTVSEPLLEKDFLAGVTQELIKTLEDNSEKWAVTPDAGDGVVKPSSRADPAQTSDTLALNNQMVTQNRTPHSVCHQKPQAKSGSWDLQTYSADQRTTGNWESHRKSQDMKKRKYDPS

Compound | EC50 [1] | EC50 [2] | EC50 [3] | AC50 [4] | further results
CCOc1c(Br)cc(CNc2ccc(N3CCOCC3)cc2)cc1OC | – | – | – | – | CC50 (Vero): > 40 µM (active); IC50 (Large T antigen): 8.16 µM (active)
Cc1ccc(S(=O)(=O)NCC(=O)OCC(=O)c2ccc(Br)s2)cc1 | 60 µM (inactive) | 8.2 µM (active) | > 79.4 µM (not active) | – | –
CCN(CC)CCNC(=S)NC(=O)c1cn(-c2ccccc2)nc1-c1ccc(OC)cc1 | – | – | – | – | CC50 (Vero): > 40 µM (active); IC50 (Beta-galactosidase): > 66.6 µM (inactive)
COc1cccc(C2C=C(c3ccc(Br)s3)Nc3ncnn32)c1OC (centres undefined) | 8.66 µM (active) | 9.72 µM (active) | > 26.5 µM (not active) | – | –
Cc1ccc(-c2cn3nc(C)c(C)nc3n2)cc1 | – | – | – | 5.3 µM (active) | –
COC(=O)c1ccc(-n2c(C)cc(C(=O)CCl)c2C)cc1 | – | – | – | 7.46 µM (active) | EC50 [5]: > 300 µM (not active); EC50 [6]: > 300 µM (not active); EC50 (Protein RecA): 22.7 µM (active); AC50 [7]: 5.18 µM (active)
CC(=C\c1ccccc1)/C=C1/SC(=S)N(CCCC(=O)O)C1=O | – | – | – | – | IC50 (Cysteine protease ATG4B): 17.1 µM (active); IC50 (Phospholipase A2): 34.7 µM (inactive)
COc1cccc(/C=C2/Sc3ccc(C(=O)NCCN4CCCC4)cc3NC2=O)c1 | – | – | – | 17.9 µM (active) | IC50 [8]: > 20 µM (inactive); AC50 [9]: 4.28 µM (active)
CN=C(S)N1N=C(c2ccccc2)CC1c1ccc(Br)cc1 (centres undefined) | 27.8 µM (inactive) | 27.5 µM (not active) | > 79.4 µM (not active) | – | –

From ChEMBL document CHEMBL1201862, “PubChem BioAssay data set” (2004)
